Our source for the Activity, inhibition and Kd values is ChEMBL document CHEMBL6121055, “Strategic Mutations in Designer Native Peptides Combat NLRP3 Inflammasome Activation in Neurodegenerative Disorders” (J Med Chem, 2025).

For data set [1], the target named is T1, Apoptosis-associated speck-like protein containing a CARD (Mus musculus) (UniProt Q9EPB4).
T1 sequence (whole entry): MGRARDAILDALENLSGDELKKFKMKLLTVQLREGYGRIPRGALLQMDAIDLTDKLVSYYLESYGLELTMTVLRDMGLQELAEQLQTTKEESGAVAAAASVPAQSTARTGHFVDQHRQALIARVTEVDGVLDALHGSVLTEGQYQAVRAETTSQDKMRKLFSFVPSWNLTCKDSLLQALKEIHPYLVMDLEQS
The data set is described as follows: Binding affinity to ASC in LPS-stimulated mouse N9 cells at 10 to 30 uM incubated overnight by Western blot based pull down assay. It counts as cell-based. The following applies: dose 10-30 µM.

The test system of data set [2] is N9. The data set is described as follows: Binding affinity to NLRP3 in LPS-stimulated mouse N9 cells at 10 to 30 uM incubated overnight by Western blot based pull down assay. It counts as cell-based. The following applies: dose 10-30 µM. (Immunoblotting shows a protein as a band on a membrane.)
Data set [3] in a line: Cytotoxicity against mouse N9 cells assessed as reduction in cell viability at 100 uM incubated for 24 hrs by MTT assay. The data set is classed as toxicity, cell-based. The conditions noted are these: n9, 24 h.
The test system of data set [4] is N9. The data set is described as follows: Inhibition of NLRP3 inflammasome activation in LPS/ATP-stimulated mouse N9 cells assessed as inhibition of caspase-1 mRNA expression at 20 uM by qRT-PCR analysis. It counts as cell-based.
For data set [5], the system named is N9. The data set is described as follows: Inhibition of NLRP3 inflammasome activation in LPS/ATP-stimulated mouse N9 cells assessed as inhibition of IL-1beta mRNA expression at 20 uM by qRT-PCR analysis. The data set is classed as cell-based. For orientation: Real-time PCR tracks product formation cycle by cycle.
Data set [6] relates to N9. The data set is described as follows: Inhibition of NLRP3 inflammasome activation mediated pyroptosis in LPS/ATP-stimulated mouse N9 cells assessed as reduction in cell death at 100 uM measured after 24 hrs by MTT assay. It counts as cell-based.
Data set [7] has as its target Apoptosis-associated speck-like protein containing a CARD (Homo sapiens, UniProt Q9ULZ3). The data set is described as follows: Binding affinity to Alexa647-labeled ASC (unknown origin) assessed as dissociation constant incubated for 5 mins by fluorescence spectra based analysis.

The source made the active and inactive calls. The rule behind the calls is not given here. Residues, ends and D or L forms follow the SMILES beside them. *: point of attachment. Biotin = O=C1N[C@H]2[C@H](CS[C@H]2CCCCC(=O)*)N1

The Kd is the concentration at which binding is half-saturated.

Apoptosis-associated speck-like protein containing a CARD, sequence (Q9ULZ3 whole entry): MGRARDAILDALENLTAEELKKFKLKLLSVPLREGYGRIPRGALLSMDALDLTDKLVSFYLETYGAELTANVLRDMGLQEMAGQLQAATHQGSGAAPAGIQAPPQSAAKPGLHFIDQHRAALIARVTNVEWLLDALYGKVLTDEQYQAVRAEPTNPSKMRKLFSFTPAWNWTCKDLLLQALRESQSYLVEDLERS

With `CC[C@H](C)[C@H](NC(=O)[C@H](C)NC(=O)[C@H](C)NC(=O)[C@H](CC(C)C)NC(=O)[C@@H](NC(=O)[C@H](Cc1c[nH]c2ccccc12)NC(=O)[C@@H](NC(=O)CCCC[C@@H]1SC[C@@H]2NC(=O)N[C@@H]21)C(C)C)[C@@H](C)CC)C(=O)N[C@@H](CC(N)=O)C(=O)N[C@@H](CCCNC(=N)N)C(=O)N[C@@H](CCCNC(=N)N)C(=O)O` (Biotin-VWILAAINRR-OH), the result in data set [1] was Active. In data set [2], the result was inactive.

As for `CC(C)C[C@H](NC(=O)[C@H](C)NC(=O)[C@@H](N)CC(=O)O)C(=O)N[C@@H](CCC(=O)O)C(=O)N[C@@H](CC(N)=O)C(=O)O` (H-DALEN-OH), the Activity result in data set [3] was “Non-toxic”.

Consider `CSCC[C@H](NC(=O)[C@H](CO)NC(=O)[C@H](C)NC(=O)[C@@H](NC(=O)[C@H](CC(C)C)NC(=O)[C@H](CC(N)=O)NC(=O)[C@H](CCC(=O)O)NC(=O)[C@H](CC(C)C)NC(=O)[C@H](C)NC(=O)[C@@H](N)CC(=O)O)[C@@H](C)O)C(=O)N[C@@H](CC(=O)O)C(=O)O` (H-DALENLTASMD-OH), for which the Activity result in data set [3] is “Non-toxic”.

For `CC[C@H](C)[C@H](NC(=O)[C@H](CCSC)NC(=O)[C@H](CC(C)C)NC(=O)[C@@H](NC(=O)[C@H](C)NC(=O)[C@H](CC(C)C)NC(=O)[C@@H](N)CC(=O)O)[C@@H](C)O)C(=O)N[C@@H](CC(=O)O)C(=O)N[C@@H](Cc1ccccc1)C(=O)O` (H-DLATLMIDF-OH), the Activity result in data set [3] is “Non-toxic”.

With `C[C@H](NC(=O)[C@@H](N)CCCCN)C(=O)N[C@@H](CCCCN)C(=O)N[C@@H](CCCNC(=N)N)C(=O)N[C@@H](CC(=O)O)C(=O)O` (H-KAKRD-OH), the Activity entry in data set [3] is reported as “Non-toxic”. Besides, the inhibition entry in data set [4] and in data set [5] was “Active” in each case.

In the case of `C[C@H](NC(=O)[C@@H](N)CCCCN)C(=O)N[C@@H](CCC(N)=O)C(=O)N[C@@H](CCCNC(=N)N)C(=O)N[C@@H](CC(=O)O)C(=O)O` (H-KAQRD-OH), in data set [3], the Activity result is given as “Non-toxic”.

Turning to `CC[C@H](C)[C@H](NC(=O)[C@H](CS)NC(=O)CNC(=O)[C@@H](N)CCCCN)C(=O)N1CCC[C@H]1C(=O)N[C@@H](CC(C)C)C(=O)N1CCC[C@H]1C(=O)N[C@@H](CCCNC(=N)N)C(=O)O` (H-KGCIPLPR-OH), in data set [3], the Activity result is “Non-toxic”.

For the compound `CSCC[C@H](NC(=O)[C@@H](N)CO)C(=O)N[C@@H](CC(=O)O)C(=O)N[C@@H](C)C(=O)N[C@@H](CC(C)C)C(=O)N[C@@H](CC(=O)O)C(=O)N[C@@H](CC(C)C)C(=O)N[C@H](C(=O)N[C@@H](CC(=O)O)C(=O)N[C@@H](CCCCN)C(=O)N[C@@H](CC(C)C)C(=O)N[C@H](C(=O)N[C@@H](CO)C(=O)O)C(C)C)[C@@H](C)O` (H-SMDALDLTDKLVS-OH), the Activity result in data set [3] is “Non-toxic”.

Consider `CC[C@H](C)[C@H](NC(=O)[C@H](C)NC(=O)[C@H](C)NC(=O)[C@H](Cc1ccccc1)NC(=O)[C@@H](NC(=O)[C@H](Cc1c[nH]c2ccccc12)NC(=O)[C@@H](N)C(C)C)[C@@H](C)CC)C(=O)N[C@@H](CC(N)=O)C(=O)N[C@@H](CCCNC(=N)N)C(=O)N[C@@H](CCCNC(=N)N)C(=O)O` (H-VWIFAAINRR-OH), for which the Activity entry in data set [3] is on record as “Non-toxic”. Also, the inhibition result in data set [4] and in data set [5] was “Active; Better Activity Observed” each time. The inhibition result in data set [6] was “Active”. Besides, the Kd in data set [7] stood at 850 nM.

As for `CC[C@H](C)[C@H](NC(=O)[C@H](Cc1c[nH]c2ccccc12)NC(=O)[C@@H](N)C(C)C)C(=O)N[C@@H](Cc1ccccc1)C(=O)N[C@@H](C)C(=O)N[C@@H](CCCCN)C(=O)N[C@@H](C)C(=O)N[C@@H](CCCCN)C(=O)N[C@@H](CCCNC(=N)N)C(=O)N[C@@H](CC(=O)O)C(=O)O` (H-VWIFAKAKRD-OH), the Activity result in data set [3] was “Non-toxic”. The inhibition entry in data set [4] and in data set [5] was “Active” throughout.

As for `CC[C@H](C)[C@H](NC(=O)[C@H](Cc1c[nH]c2ccccc12)NC(=O)[C@@H](N)C(C)C)C(=O)N[C@@H](CC(C)C)C(=O)N[C@@H](C)C(=O)N[C@@H](CCCCN)C(=O)N[C@@H](C)C(=O)N[C@@H](CCC(N)=O)C(=O)N[C@@H](CCCNC(=N)N)C(=O)N[C@@H](CC(=O)O)C(=O)O` (H-VWILAKAQRD-OH), the Activity result in data set [3] was “Non-toxic”.
